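Results reflect a 48-hour exposure of cells in 96-well plates to compound at five concentrations. At the GI50, growth is halved.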 Calls of active or inactive are those of the source. Cut-off read from the data, not from the text of the source: active = GI50 up to about 1.1 µM and inactive = higher.
How the values were obtained:
Experiment in all cases: inhibition of tumour cell growth, NCI panel, 48 h
MDA-MB-435 = tested on: MDA-MB-435
Hs-578T = tested on: Hs-578T
UO-31 = tested on: UO-31
NCI-H460 = tested on: NCI-H460
UACC-62 = tested on: UACC-62
SR = tested on: SR
MDA-MB-231 = tested on: MDA-MB-231
LOX IMVI = tested on: LOX IMVI
NCI/ADR-RES = tested on: NCI/ADR-RES
NCI-H226 = tested on: NCI-H226
HL-60 = tested on: HL-60
NCI-H23 = tested on: NCI-H23
HOP-62 = tested on: HOP-62
HT-29 = tested on: HT-29
SK-MEL-5 = tested on: SK-MEL-5
SF-295 = tested on: SF-295
TK-10 = tested on: TK-10
786-0 = tested on: 786-0
SNB-75 = tested on: SNB-75
CCRF-CEM = tested on: CCRF-CEM

Structure (SMILES)	GI50 (MDA-MB-435)	GI50 (Hs-578T)	GI50 (UO-31)	GI50 (NCI-H460)	GI50 (UACC-62)	GI50 (SR)	GI50 (MDA-MB-231)	GI50 (LOX IMVI)	GI50 (NCI/ADR-RES)	GI50 (NCI-H226)	GI50 (HL-60)	GI50 (NCI-H23)	GI50 (HOP-62)	GI50 (HT-29)	GI50 (SK-MEL-5)	GI50 (SF-295)	GI50 (TK-10)	GI50 (786-0)	GI50 (SNB-75)	GI50 (CCRF-CEM)
Nc1nc(-c2cccc([N+](=O)[O-])c2)cc(-c2cc(-c3cccc([N+](=O)[O-])c3)nc(N)n2)n1	> 100 µM (inactive)	> 100 µM (inactive)	> 100 µM (inactive)	> 100 µM (inactive)	> 100 µM (inactive)	> 100 µM (inactive)	> 100 µM (inactive)	> 100 µM (inactive)	> 100 µM (inactive)	> 100 µM (inactive)	> 100 µM (inactive)	> 100 µM (inactive)	> 100 µM (inactive)	> 100 µM (inactive)	> 100 µM (inactive)	> 100 µM (inactive)	> 100 µM (inactive)	> 100 µM (inactive)		
Cc1ccc(S(=O)ON2CCC(C(=O)O)(c3ccccc3)CC2)cc1 (stereo not drawn)	> 100 µM (inactive)	> 100 µM (inactive)	> 100 µM (inactive)	> 100 µM (inactive)	> 100 µM (inactive)		> 100 µM (inactive)	> 100 µM (inactive)	> 100 µM (inactive)	> 100 µM (inactive)	> 100 µM (inactive)	> 100 µM (inactive)	> 100 µM (inactive)	> 100 µM (inactive)	> 100 µM (inactive)	> 100 µM (inactive)	> 100 µM (inactive)	0.0773 µM (active)	> 100 µM (inactive)	> 100 µM (inactive)
NCCC(=O)NC(Cc1c[nH]cn1)C(=O)O (stereo not drawn)	> 100 µM (inactive)	> 100 µM (inactive)	> 100 µM (inactive)	> 100 µM (inactive)			> 100 µM (inactive)	> 100 µM (inactive)	> 100 µM (inactive)	> 100 µM (inactive)	> 100 µM (inactive)	> 100 µM (inactive)	> 100 µM (inactive)	> 100 µM (inactive)	> 100 µM (inactive)	> 100 µM (inactive)	> 100 µM (inactive)	> 100 µM (inactive)	> 100 µM (inactive)	> 100 µM (inactive)
CC1CC[C@@]2(OC1)OC1C[C@H]3[C@@H]4CC=C5CC(OC6OC(CO)C(OC7OC(CO)C(O)C(OC8OCC(O)C(O)C8O)C7OC7OC(CO)C(OC8OC(C)C(OC9OC(C)C(O)C(O)C9O)C(O)C8O)C(O)C7O)C(O)C6O)CCC5(C)[C@H]4CCC3(C)C1[C@@H]2C (stereo partly drawn)	9.06 µM (inactive)	9.29 µM (inactive)		9.93 µM (inactive)	9.71 µM (inactive)	0.495 µM (active)	5.36 µM (inactive)	8.99 µM (inactive)	9.48 µM (inactive)	9.08 µM (inactive)	8.99 µM (inactive)	8.97 µM (inactive)	7.13 µM (inactive)	8.17 µM (inactive)	8.69 µM (inactive)	6.71 µM (inactive)	8.59 µM (inactive)	2.37 µM (inactive)		10.4 µM (inactive)
COC(=O)C1CC(C=[N+](C)C)=C(SC)N1 (stereo not drawn)	> 100 µM (inactive)	> 100 µM (inactive)	> 100 µM (inactive)	98.2 µM (inactive)	> 100 µM (inactive)	> 100 µM (inactive)	> 100 µM (inactive)		> 100 µM (inactive)			> 100 µM (inactive)	> 100 µM (inactive)	> 100 µM (inactive)	> 100 µM (inactive)	> 100 µM (inactive)	> 100 µM (inactive)	> 100 µM (inactive)	> 100 µM (inactive)	
CCCCNC(=O)Cn1c2ccc(Br)cc2c2nc3ccccc3nc21	> 100 µM (inactive)	> 100 µM (inactive)	> 100 µM (inactive)		> 100 µM (inactive)	0.589 µM (active)	> 100 µM (inactive)	> 100 µM (inactive)	42.2 µM (inactive)	12.3 µM (inactive)		> 100 µM (inactive)	58.1 µM (inactive)	> 100 µM (inactive)	> 100 µM (inactive)	> 100 µM (inactive)	> 100 µM (inactive)	> 100 µM (inactive)	51.9 µM (inactive)	> 100 µM (inactive)
CCOC(=O)Cc1nc2cc(F)c(F)cc2[nH]c1=O	> 100 µM (inactive)	> 100 µM (inactive)	> 100 µM (inactive)	> 100 µM (inactive)	> 100 µM (inactive)		> 100 µM (inactive)	> 100 µM (inactive)	> 100 µM (inactive)	> 100 µM (inactive)	> 100 µM (inactive)	> 100 µM (inactive)	> 100 µM (inactive)	> 100 µM (inactive)	> 100 µM (inactive)	> 100 µM (inactive)	> 100 µM (inactive)	> 100 µM (inactive)	> 100 µM (inactive)	> 100 µM (inactive)
CC(C)CC1C(=O)OC(C)(C)OC1=O	> 100 µM (inactive)	> 100 µM (inactive)	> 100 µM (inactive)	> 100 µM (inactive)	> 100 µM (inactive)		> 100 µM (inactive)	> 100 µM (inactive)	> 100 µM (inactive)	> 100 µM (inactive)		> 100 µM (inactive)	> 100 µM (inactive)	> 100 µM (inactive)	> 100 µM (inactive)	> 100 µM (inactive)	> 100 µM (inactive)	> 100 µM (inactive)	> 100 µM (inactive)	> 100 µM (inactive)
Nc1c(-c2nc3ccccc3o2)sc(=S)n1-c1ccc(Cl)cc1	17.3 µM (inactive)	12.8 µM (inactive)	29.4 µM (inactive)	23 µM (inactive)	0.452 µM (active)	51.5 µM (inactive)	19.3 µM (inactive)		19.3 µM (inactive)	13.9 µM (inactive)	> 100 µM (inactive)	13.9 µM (inactive)	5.11 µM (inactive)	37.4 µM (inactive)	17.2 µM (inactive)	10.6 µM (inactive)	27.9 µM (inactive)	8.57 µM (inactive)		> 100 µM (inactive)
Cc1ccsc1/C=N/NC1=NCCN1	> 100 µM (inactive)	> 100 µM (inactive)	> 100 µM (inactive)		> 100 µM (inactive)		> 100 µM (inactive)	> 100 µM (inactive)	> 100 µM (inactive)	> 100 µM (inactive)		> 100 µM (inactive)	> 100 µM (inactive)	> 100 µM (inactive)	> 100 µM (inactive)	55.3 µM (inactive)	> 100 µM (inactive)	> 100 µM (inactive)	> 100 µM (inactive)	> 100 µM (inactive)
CCCCc1ccc(Nc2cc(=O)n(C)c(=O)[nH]2)cc1	> 100 µM (inactive)	> 100 µM (inactive)	> 100 µM (inactive)	32.2 µM (inactive)	> 100 µM (inactive)		89.7 µM (inactive)	39.8 µM (inactive)	57.4 µM (inactive)	> 100 µM (inactive)		> 100 µM (inactive)	> 100 µM (inactive)	> 100 µM (inactive)	> 100 µM (inactive)	> 100 µM (inactive)	> 100 µM (inactive)	> 100 µM (inactive)	> 100 µM (inactive)	
COC(CNC(=O)C(C)NC(=O)C(C)NC(=O)c1ccccc1)OC (stereo not drawn)	> 100 µM (inactive)	> 100 µM (inactive)		> 100 µM (inactive)	> 100 µM (inactive)	> 100 µM (inactive)	> 100 µM (inactive)		> 100 µM (inactive)	> 100 µM (inactive)		> 100 µM (inactive)		> 100 µM (inactive)	> 100 µM (inactive)	> 100 µM (inactive)	> 100 µM (inactive)	> 100 µM (inactive)	> 100 µM (inactive)	> 100 µM (inactive)
CNNC1=NS(=O)(=O)c2cc(C(=O)OC)c(Cl)cc2S1	> 10 µM (inactive)	> 10 µM (inactive)	0.001 µM (active)	> 10 µM (inactive)	> 10 µM (inactive)		> 10 µM (inactive)	> 10 µM (inactive)	> 10 µM (inactive)	> 10 µM (inactive)	> 10 µM (inactive)	> 10 µM (inactive)	> 10 µM (inactive)	> 10 µM (inactive)	> 10 µM (inactive)	> 10 µM (inactive)	> 10 µM (inactive)	> 10 µM (inactive)	> 10 µM (inactive)	> 10 µM (inactive)
CC12CC(OC(=O)[C@]1(C)O)[C@@H]([C@]1(O)CC[C@H]3[C@@H]4C[C@H]5O[C@]56[C@@H](O)C=CC(=O)[C@]6(C)[C@H]4CC[C@@]31C)C2 (stereo partly drawn)	7.4 µM (inactive)	6.71 µM (inactive)	4.32 µM (inactive)	12.3 µM (inactive)	14.6 µM (inactive)		5.2 µM (inactive)	4.42 µM (inactive)	5.35 µM (inactive)	40.7 µM (inactive)	< 0.01 µM (active)	4.08 µM (inactive)	28.9 µM (inactive)	4.03 µM (inactive)	0.785 µM (active)	33.7 µM (inactive)	7.36 µM (inactive)	3.04 µM (inactive)		1.33 µM (inactive)
CC(C)(Oc1ccc(C2C[C@H]2Cl)cc1)C(=O)O (stereo partly drawn)	> 100 µM (inactive)	> 100 µM (inactive)		> 100 µM (inactive)	> 100 µM (inactive)	> 100 µM (inactive)	> 100 µM (inactive)	> 100 µM (inactive)			> 100 µM (inactive)		> 100 µM (inactive)		> 100 µM (inactive)	> 100 µM (inactive)	> 100 µM (inactive)	> 100 µM (inactive)	> 100 µM (inactive)	
